Assay [1] can be described thus: HepG2 cell cytotoxicity, dose response, cytotoxicity control, ATP luminescence, cherry-pick, activator set 2 (AID 1053143). In kind it is functional, cell-based.
The target in assay [2] is T1, Trace amine-associated receptor 1 (Homo sapiens, UniProt Q96RJ0).
T1 sequence (Q96RJ0 whole entry): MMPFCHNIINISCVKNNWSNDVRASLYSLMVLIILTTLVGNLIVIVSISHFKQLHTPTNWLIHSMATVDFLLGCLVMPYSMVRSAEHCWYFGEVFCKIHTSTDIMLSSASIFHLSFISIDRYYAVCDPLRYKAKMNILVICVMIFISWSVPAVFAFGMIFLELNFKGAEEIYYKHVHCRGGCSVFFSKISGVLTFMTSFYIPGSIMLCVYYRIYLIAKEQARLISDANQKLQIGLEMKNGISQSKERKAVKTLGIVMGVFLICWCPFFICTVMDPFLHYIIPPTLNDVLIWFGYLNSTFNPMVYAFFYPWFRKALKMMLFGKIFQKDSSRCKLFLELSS
Description: Counterscreen for antagonists of the human trace amine associated receptor 1 (hTAAR1): Fluorescence-based cell-based high throughput dose response assay to identify TAAR1 Agonists. In kind it is functional.

A short description of assay [3]: Counterscreen for […] of the human trace amine associated receptor 1 (TAAR1): Fluorescence-based cell-based high throughput dose response assay to identify nonselective Ga16 agonists. In kind it is functional.
The target in assay [4] is T1, Trace amine-associated receptor 1. Description: Fluorescence-based cell-based high throughput dose response assay to identify antagonists of the human trace amine associated receptor 1 (TAAR1). Format: functional.
Assay [5] is described as follows: Counterscreen for antagonists of the human trace amine associated receptor 1 (hTAAR1): Fluorescence-based cell-based high throughput dose response assay to identify nonselective Ga16 antagonists. Format: functional. (The purpose of a counterscreen is to sort out artefacts and off-target activity.)
The target in assay [6] is Metabotropic glutamate receptor 5 (Rattus norvegicus, UniProt P31424). In words: Identification of a glycine sulfonamide based non-MPEP site positive allosteric potentiator (PAM) of mGlu5 (calcium_assay). Format: functional.
Chain of Metabotropic glutamate receptor 5 (P31424 whole entry): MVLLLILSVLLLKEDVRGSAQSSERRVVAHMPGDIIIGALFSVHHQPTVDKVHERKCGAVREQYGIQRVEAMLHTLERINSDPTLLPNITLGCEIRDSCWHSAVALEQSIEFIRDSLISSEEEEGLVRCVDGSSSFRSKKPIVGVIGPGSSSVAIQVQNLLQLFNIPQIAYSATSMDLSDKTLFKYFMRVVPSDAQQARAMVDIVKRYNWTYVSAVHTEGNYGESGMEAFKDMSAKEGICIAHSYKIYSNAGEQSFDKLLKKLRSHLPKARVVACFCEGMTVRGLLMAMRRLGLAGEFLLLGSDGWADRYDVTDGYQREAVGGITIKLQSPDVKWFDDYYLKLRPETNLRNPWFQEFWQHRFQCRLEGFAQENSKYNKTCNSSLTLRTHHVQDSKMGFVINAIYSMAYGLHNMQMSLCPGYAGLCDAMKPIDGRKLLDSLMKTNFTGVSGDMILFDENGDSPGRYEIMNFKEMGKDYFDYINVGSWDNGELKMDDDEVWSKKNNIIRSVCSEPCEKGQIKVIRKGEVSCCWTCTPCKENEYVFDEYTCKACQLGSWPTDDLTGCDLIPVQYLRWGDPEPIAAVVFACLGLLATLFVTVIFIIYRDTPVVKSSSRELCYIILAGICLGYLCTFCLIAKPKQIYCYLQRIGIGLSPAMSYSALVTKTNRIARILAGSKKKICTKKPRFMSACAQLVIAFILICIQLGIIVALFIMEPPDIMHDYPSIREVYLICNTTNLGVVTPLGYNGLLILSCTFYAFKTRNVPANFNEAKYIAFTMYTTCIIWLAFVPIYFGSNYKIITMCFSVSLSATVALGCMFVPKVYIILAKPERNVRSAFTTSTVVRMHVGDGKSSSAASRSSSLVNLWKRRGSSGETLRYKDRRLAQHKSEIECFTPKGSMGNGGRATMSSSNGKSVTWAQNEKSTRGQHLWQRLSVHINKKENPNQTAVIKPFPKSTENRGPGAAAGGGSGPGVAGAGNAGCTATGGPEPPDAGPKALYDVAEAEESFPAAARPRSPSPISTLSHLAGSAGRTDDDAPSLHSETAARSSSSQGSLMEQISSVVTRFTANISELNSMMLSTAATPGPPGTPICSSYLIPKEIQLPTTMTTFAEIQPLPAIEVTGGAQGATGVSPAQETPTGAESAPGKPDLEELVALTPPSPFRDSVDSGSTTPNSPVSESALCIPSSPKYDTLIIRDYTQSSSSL
A short description of assay [7]: TRPM1 promoter luciferase reporter signal decrease, dose response, MITF inhibitor project, cell-based, SK-MEL-5, dry powder, set 9 (AID 651588). Format: functional. On the technique in general: In a reporter assay the amount or activity of a reporter protein is the signal.
Assay [8] is described as follows: A375 melanoma cell cytotoxicity, dose response, counter-screen for MITF inhibitor project, CellTiter-Glo luminescence, dry powder, set 7 (AID 624490). Format: functional, cell-based. Particulars: A-375.
Assay [9] is described as follows: cytotoxicity in primary human melanocytes, dose response, cytotoxicity control, cell-based, plate reader, dry powder (AID 651920). In kind it is functional.
Assay [10] is described as follows: MITF Orthogonal Assay: MALME3 CTG Assay Measured in Cell-Based System Using Plate Reader - 2084-04_Inhibitor_Dose_DryPowder_Activity_Set6. Particulars: MALME-3. Format: functional.
A short description of assay [11]: MITF Measured in Cell-Based System Using Plate Reader - 2084-01_Inhibitor_Dose_DryPowder_Activity_Set7. Format: functional.
Assay [12] is described as follows: SK-MEL-5 parental line viability, dose response, MITF inhibitor project, cell-based, CellTiter-Glo, dry powder, set 6 (AID 624429). In kind it is functional.
A short description of assay [13]: MALME3 melanoma cell viability reduction, dose response, orthogonal assay for MITF inhibitor project, CellTiter-Glo luminescence, dry powder, set 5 (AID 651584). Particulars: MALME-3. In kind it is functional, cell-based.
A short description of assay [14]: MITF Orthogonal Assay: SK-MEL-5 CTG Assay Measured in Cell-Based System Using Plate Reader - 2084-02_Inhibitor_Dose_DryPowder_Activity_Set5. Format: functional.
Assay [15] is described as follows: A375 melanoma cell viability loss, dose response, counter-screen for MITF inhibitor project, CellTiter-Glo luminescence, dry powder, set 4 (AID 624364).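 Also: A375 melanoma cells are MITF independent so this is a counter screen.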 In kind it is functional, cell-based. Particulars: A-375.
The nature of assay [16]: MITF Measured in Cell-Based System Using Plate Reader - 2084-01_Inhibitor_Dose_DryPowder_Activity_Set6. Format: functional.
Assay [17] in a line: SK-MEL-5 parental cell viability reduction, dose response, orthogonal assay for MITF inhibitor project, CellTiter-Glo luminescence, dry powder, set 8 (AID 651586). In kind it is functional, cell-based. On the technique in general: In ATP-based viability assays light output follows the ATP content of the culture.
In another assay the target is Kallikrein-7 (Homo sapiens, UniProt P49862). Description: Fluorescence Intensity-based biochemical primary high throughput dose response assay to identify activators of kallikrein-7 (K7) zymogen.
Chain of Kallikrein-7 (P49862 whole entry): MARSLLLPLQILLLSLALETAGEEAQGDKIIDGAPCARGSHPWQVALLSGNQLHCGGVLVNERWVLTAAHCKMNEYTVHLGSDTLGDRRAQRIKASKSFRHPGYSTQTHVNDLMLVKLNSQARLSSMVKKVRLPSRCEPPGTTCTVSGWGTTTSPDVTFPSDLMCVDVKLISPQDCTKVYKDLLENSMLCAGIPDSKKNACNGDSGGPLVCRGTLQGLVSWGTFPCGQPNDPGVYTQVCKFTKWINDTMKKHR
Assay [18] can be described thus: A549 cell cytotoxicity, dose response, cytotoxicity control, CellTiter-Glo luminescence, dry powder, set 3 (AID 743146). In kind it is functional, cell-based.
Assay [19] in a line: HEK293 cell cytotoxicity, dose response, cytotoxicity control, ATP luminescence, dry powder, Set6 (AID 743142). In kind it is functional, cell-based.
Assay [20] in a line: inhibitors of CMV-promoter luciferase reporter, dose response, counter-screen for Pax8 inhibitor project, cell-based, HEK293, luminescence, dry powder (AID 743020). In kind it is functional.
Assay [21] in a line: NIH:OVCAR-3 ovarian cancer cell cytotoxicity, dose response, PAX8 inhibitor project, plate reader, dry powder samples (AID 743044). Format: functional, cell-based.
Assay [22] can be described thus: IOSE-T80 ovarian epithelial cell cytotoxicity, dose response, cytotoxicity control for PAX8 inhibitor project, plate reader, dry powder samples (AID 743045). In kind it is functional, cell-based.
The next assay addresses Paired box protein Pax-8 (Homo sapiens, UniProt Q06710). In words: inhibitors of PAX8-driven TPO luciferase reporter, dose response, RMG-I cells, cherry-pick (AID 687027).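 Also: luciferase reporter driven by Pax8 target thyroperoxidase promoter measured by SteadyGlo luminescence.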 Format: functional, cell-based.
Assay [23] is described as follows: cytotoxicity in OVCAR8 ovarian cancer cells, dose response, PAX8 project, cell-based, plate reader, dry powder samples (AID 743197). In kind it is functional. Particulars: OVCAR-8.
The nature of assay [24]: A549 cell cytotoxicity, dose response, cytotoxicity control, cherry-picks, 26 µM top dose (AID 1053119). In kind it is functional, cell-based.
Assay [25] is described as follows: inhibitors of fibronectin matrix deposition, dose response, AH1F cells, Alexa488-FN fluorescence, cherry-picks (AID 1035475). In kind it is functional, cell-based.
Assay [26] addresses Photoreceptor-specific nuclear receptor (Homo sapiens, UniProt Q9Y5X4). In kind it is functional, cell-based.
The nature of assay [27]: HEK293 cell cytotoxicity, dose response, cytotoxicity control, cherry-picks, set 5 (AID 1053117). Format: functional, cell-based.

Each structure is given as a SMILES string. Activity calls are given as the source filed them.

The record followed here is ChEMBL document CHEMBL1201862, “PubChem BioAssay data set” (2004).

For orientation: AC50 means the concentration at which the activity in the assay is half-maximal. One may read the EC50 as the concentration giving half of the maximal effect. By IC50 is commonly meant the concentration that inhibits the measured activity by half.

Chain of Photoreceptor-specific nuclear receptor (Q9Y5X4 whole entry): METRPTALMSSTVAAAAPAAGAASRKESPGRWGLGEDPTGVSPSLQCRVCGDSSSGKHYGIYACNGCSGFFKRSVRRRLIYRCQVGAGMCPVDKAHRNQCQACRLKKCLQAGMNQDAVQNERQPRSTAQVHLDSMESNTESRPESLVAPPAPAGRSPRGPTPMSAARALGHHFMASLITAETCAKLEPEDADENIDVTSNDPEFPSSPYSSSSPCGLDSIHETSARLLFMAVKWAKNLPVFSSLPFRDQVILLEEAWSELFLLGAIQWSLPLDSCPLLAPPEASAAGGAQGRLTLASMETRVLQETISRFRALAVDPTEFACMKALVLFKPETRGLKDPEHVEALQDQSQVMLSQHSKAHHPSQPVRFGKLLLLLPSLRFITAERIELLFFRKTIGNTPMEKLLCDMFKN
Chain of Paired box protein Pax-8 (Q06710 whole entry): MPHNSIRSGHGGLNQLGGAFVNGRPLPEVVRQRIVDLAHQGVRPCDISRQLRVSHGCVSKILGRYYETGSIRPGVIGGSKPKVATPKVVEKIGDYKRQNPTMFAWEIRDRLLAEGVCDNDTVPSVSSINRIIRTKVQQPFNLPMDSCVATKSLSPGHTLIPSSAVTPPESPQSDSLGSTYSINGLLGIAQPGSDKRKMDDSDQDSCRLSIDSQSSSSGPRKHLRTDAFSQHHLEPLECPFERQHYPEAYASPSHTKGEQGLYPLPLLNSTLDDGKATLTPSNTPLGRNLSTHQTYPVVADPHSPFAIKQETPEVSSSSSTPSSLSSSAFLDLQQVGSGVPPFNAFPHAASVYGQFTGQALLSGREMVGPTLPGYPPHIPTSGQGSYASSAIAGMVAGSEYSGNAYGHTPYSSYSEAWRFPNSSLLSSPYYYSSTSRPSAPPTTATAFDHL

As for `O=c1c2ccccc2oc2cc(-c3ccc(CN4CCOCC4)cc3)ccc12`, in [1], the AC50 was 26 µM (active).
As for `CCCC(=O)Nc1ccc(-c2csc(N/N=C\c3ccncc3)n2)cc1`, the EC50 in assay [2] and in [3] was > 29.9 µM (inactive) throughout. Besides, the results for the IC50 in [4] and in assay [5] were 9.3 µM (active) and > 29.9 µM (inactive), respectively.
For `CC(C(=O)Nc1ccncc1)N(c1ccccc1Cl)S(C)(=O)=O` (centres undefined), the EC50 in [6] was > 30 µM (inactive).
As for `O=C1C=C(NS(=O)(=O)c2ccc(Br)cc2)C(=O)c2ccccc21`, the AC50 in assay [7] is 18.8 µM (active); in assay [8] it was > 70 µM (inactive); in assay [9], 14.5 µM (active); in assay [10] it was 24.4 µM (active); in assay [11] it was 7.45 µM (active); in [12], 11.2 µM (active). Moreover, the AC50 in [13] is 24.4 µM (active); in [14], 13.1 µM (active); in [15], > 70 µM (inactive); in [16], 6.37 µM (active); in assay [17], 11.8 µM (active).
For the compound `CN1CCSc2ccc(C(=O)NCc3cccc(F)c3)cc21`, the EC50 on Kallikrein-7 is > 69.5 µM (inactive).
`Cc1ccc(C(=O)NCCC(=O)N[C@@H]2CCCc3ccccc32)cc1`: the AC50 in assay [18] was > 52 µM (inactive); in assay [19], 6.22 µM (active).
For the compound `O=C(Nc1ccc(F)cc1)N1CC(=O)N2[C@@H](CO)[C@H](c3ccc(-c4ccc(F)cc4)cc3)[C@@H]2C1`, the AC50 in assay [20] was 34.5 µM (active); in assay [21] it was 18.1 µM (active); in assay [22], 36.7 µM (active); on Paired box protein Pax-8 it was 6.32 µM (active); in [23] it was 25.6 µM (active).
With `CN1CCN(C(=O)c2cccc(-c3cnc4cnc(-c5ccccc5Oc5ccccc5)cn34)c2)CC1`, the AC50 is > 52 µM (inactive) in assay [24], 5.86 µM (active) in [25] and 47.8 µM (active) in assay [27]. Besides, in assay [26], the IC50 is 1.72 µM (active).
